The assay deals with Platelet-activating factor receptor (Oryctolagus cuniculus). As to the kind of experiment: Inhibition of PAF receptor binding to rabbit platelet plasma membranes.

Molecule `COc1ccc([C@H]2CC[C@H](c3ccc(OC)c(OC)c3)O2)cc1OC` came in with a half-maximal inhibitory concentration (IC50) of 500 nM.
Then `COc1ccc(C2CC[C@H](c3ccc(OC)c(OC)c3)O2)cc1OC` (some centres not stated), with above 3000 nM.

In general, IC50 refers to the concentration at which inhibition is half-maximal.

Source of the values: BindingDB's records for doi:10.1021/jm00160a020 (1986).
